In patent US20260076959A1, “COMBINATION PRODUCT, SALT, AND USE THEREOF IN TREATING NEURODEGENERATIVE DISEASES OR DISORDERS” (SHANGHAI HENLIUS BIOTECH, INC., priority 2023, published 2026):
Where a name gives a salt, the structure may show the parent alone.

How the values were obtained:
ALS = conditions: in vivo; cited from earlier work
[1] = test system: MPTP-induced Parkinson's disease mouse model; test: MPTP-induced Parkinson's disease mouse model (grip strength, rotarod, TH immunohistochemistry); type: in vivo, C57BL/6 mice; conditions: for reduction in TH-positive cells in the substantia nigra region: P<0.0001
Method: Sixty male C57BL/6 mice were selected and randomly divided into 5 groups (12 mice/group), namely a sham surgery group (normal control), a model group (model control), an L-DOPA group (positive drug control, 40 mg/kg), a low-dose YT salt treatment group (167.5 mg/kg), and a high-dose YT salt treatment group (248 mg/kg). The mice were intraperitoneally injected with MPTP at a dose of 30 mg/kg for 5 consecutive days for modeling. The YT salt was intragastrically administered twice daily (with an interval of 7-8 h between two administrations) for 13 consecutive days. L-DOPA was administered twice daily (with an interval of 7-8 h between two administrations) for 8 consecutive days. The amelioration effect of the YT salt on the motor function of the MPTP-induced Parkinson's disease mice was evaluated by behavioral indicators such as a grip strength test and a rotarod test. Histopathological examination was performed on the animals to evaluate the protective effect of the YT salt on dopaminergic neurons in the MPTP-induced Parkinson's disease mice.

CD4-positive T cells = test: Proliferation of CD4-positive T cells from anti-CD3/CD28-stimulated PBMCs (CellTrace, flow cytometry); type: cell-based, human; conditions: 72 h; for proliferation of CD4-positive T cells compared to control group (DMSO): 100 μM (Y+T: 100 μM+100 μM)
Description: (§1) It has been reported that in ALS, Th cells are described as major players in inflammation and disease progression. […] Similarly, CD8 T cell infiltration was also observed in the spinal cord and brain of ALS patients. (Elise Liu, et al., Neuroinflammation in Amyotrophic Lateral Sclerosis and Frontotemporal Dementia and the Interest of Induced Pluripotent Stem Cells to Study Immune Cells Interactions With Neurons, Front Mol Neurosci. 2021 Dec. 14; 14:767041. doi: 10.3389/fnmol.2021.767041.) To observe the inhibitory effects of the compounds, the compound combination, or the salt of the present disclosure on immune cell infiltration or proliferation, their effects in inhibiting the proliferation of CD4-positive and CD8-positive T cells were further analyzed. First, a certain amount of human peripheral blood mononuclear cells (PBMCs) were incubated with 5 μM CellTrace cell proliferation assay reagent in an incubator at 37° C. with 5% CO2 in the dark for 20 min. Then, 1.5×10^5 CellTrace-stained PBMCs were seeded in a 96-well U-bottom plate and treated with Anti-CD3/CD28 antibody-coupled magnetic beads at a ratio of 1:1 (cell count:magnetic bead count) to induce differentiation into T cells. Subsequently, various compounds at corresponding concentrations (compound Y: 100 μM; compound T: 100 μM; compound combination Y+T: 100 µM compound Y+100 μM compound T; YT salt: 100 μM; control group: […] (100 μM)) were co-incubated with the above-treated cells in the incubator at 37° C. with 5% CO2 for 72 h, followed by analysis by a flow cytometer. Specifically, the test cells were first treated with a Live/dead dye (633 nm, 1:1000 dilution) at 4° C. for 30 min to distinguish dead cells from live cells. […] After appropriate washing, the above-stained cells were analyzed by a flow cytometer at different wavelengths. […] Proliferation of CD4-positive and CD8-positive T cells was determined by the fluorescence of CellTrace dye.

CD8-positive T cells = test: Proliferation of CD8-positive T cells from anti-CD3/CD28-stimulated PBMCs (CellTrace, flow cytometry); type: cell-based, human; conditions: 72 h; for proliferation of CD8-positive T cells compared to control group (DMSO): 100 μM (Y+T: 100 μM+100 μM)
Description: as §1

[2] = test system: SOD1G93A mutant ALS model mice; test: Onset of disease, severe conditions and survival in SOD1G93A ALS mouse model; type: in vivo
Method: The therapeutic effect of the YT salt on the survival status of ALS animals was evaluated in SOD1^G93A transgenic mice (B6SJL-Tg (SOD1*G93A) 1/cyagen). Sixteen female and fourteen male B6SJL-Tg(SOD1*G93A) 1/cyagen mice were selected and randomly divided into 2 groups (7 males+8 females/group) according to sex and body weight, namely a model group (control) and a YT salt group (treatment group). The YT salt was intragastrically administered at a dose of 496 mg/kg once daily. The administration began on day 66 of mouse age. Body weight changes were monitored, animal status and symptom severity were evaluated, and individual survival periods were recorded. Statistics on the severity of animal symptoms included the time to the first onset of disease and the time to the first observation of severe conditions in the animals. […] In this study, “severe condition” was defined as a state in which the animal was completely paralyzed and unable to move freely, but still alive; if the animal died directly without going through a “paralysis” stage after the onset of disease, the death was considered the occurrence of a severe condition. The survival period was statistically defined as the survival time of the animal at the endpoint of the test (day 130). The hazard ratio was calculated using the Log-rank test method.

SH-sy5y cells = test: Cell viability of hydrogen peroxide-induced SH-sy5y cells (CellTiter-Glo luminescence); type: cell-based
Method: Neuroblastoma SH-sy5y cells (purchased from the Cell Bank of the Chinese Academy of Sciences) were cultured in a complete medium (DMEM+10% FBS+1% PS) in a cell incubator at 37° C. with 5% CO2. The experiment was divided into 11 groups in total: • Group 1 (control): SH-sy5y cells • Group 2 (model): SH-sy5y cells+hydrogen peroxide • Group 3: SH-sy5y cells+hydrogen peroxide+compound Y (100 μM) • Group 4: SH-sy5y cells+hydrogen peroxide+compound T (100 μM) • Group 5: SH-sy5y cells+hydrogen peroxide+compound B (100 μM) • Group 6: SH-sy5y cells+hydrogen peroxide+compound N (100 μM) • Group 7: SH-sy5y cells+hydrogen peroxide+compound combination Y+T (100 μM+100 μM) • Group 8: SH-sy5y cells+hydrogen peroxide+compound combination B+N (100 μM+100 μM) • Group 9: SH-sy5y cells+hydrogen peroxide+compound combination PB+T (500 μM+200 μM) • Group 10: SH-sy5y cells+hydrogen peroxide+YT salt (100 μM) • Group 11: SH-sy5y cells+DMSO
Neuroblastoma SH-sy5y cells were plated at 1×10^4 cells/well in a complete medium (DMEM+10% FBS+1% PS) and cultured in a cell incubator at 37° C. with 5% CO2 for 24 h, followed by the addition of the corresponding compounds. After 24 h of incubation, hydrogen peroxide was added to stimulate the cells for 1 h, with the final concentration of hydrogen peroxide being 350 µM. Subsequently, […] CellTiter-Glo® (CTG) reagent was added, and the mixture was shaken for 2 min. Then, the luminescence signal values were measured, which could characterize the cell viability. […] Pharmacology/toxicologyNDAreviewandevaluation, Application number: 2166600Orig1s000, Food and Drug Administration. doi: pink.pharmaintelligence.informa.com/-/media/supporting-documents/pink-sheet/2022/11/relyvrio_nonclinical.pdf?rev=d27109bf35c040d4a78f73144d132917&hash=414BB5B4473A21ECE0231375EB1C0341).

[3] = test system: 6-OHDA-induced Parkinson's disease rats; test: 6-OHDA-induced Parkinson's disease rat model (grid walking test); type: in vivo, SD rats; conditions: 248 mg/kg intragastrically once daily, 6 weeks; P<0.05 vs model
Method: Forty-eight male SD rats were selected and divided into 4 groups (12 rats/group), namely a sham surgery group (normal control), a model group (model control), an istradefylline group (istradefylline, as a positive drug control, 10 mg/kg), and a YT salt treatment group (248 mg/kg). The Parkinson's disease model was established by injecting […] of 6-OHDA into the right intracranial medial forebrain bundle (MFB) of rats. After modeling, istradefylline and the YT salt were administered intragastrically once daily for 6 consecutive weeks, and a grid walking test was performed at the end of the 6-week administration period to evaluate the disease progression in the rats.

[4] = 496 mg/kg intragastrically once daily

Question: With CC1=NN(c2ccccc2)C(=O)C1 [Evadarone] as the compound, how does the “revised ALS functional rating scale (ALSFRS-R) score” value (ALS) read?
Answer: improves

Question: Which results are given for N[C@@H](Cc1ccc(O)c(O)c1)C(=O)O [L-DOPA, reference compound]?
Answer: MPTP-induced decrease in animal grip strength ([1]; L-DOPA 40 mg/kg twice daily, 8 days, P<0.001 vs model): significantly ameliorate; reduction in TH-positive cells in the substantia nigra region ([1]; L-DOPA 40 mg/kg twice daily): significant inhibition

Question: Which “proliferation of CD4-positive T cells compared to control group (DMSO)” value (CD4-positive T cells) does the source give for COc1cc2cc3[n+](cc2cc1OC)CCc1cc2c(cc1-3)OCO2 [YT salt] here?
Answer: significantly inhibited

Question: What about the “inhibitory effect on proliferation of CD4-positive T cells compared to compound T and compound U (UDCA)” value (CD4-positive T cells; 100 μM) of the same compound?
Answer: significantly superior

Question: And the “proliferation of CD8-positive T cells compared to control group (DMSO)” value (CD8-positive T cells)?
Answer: significantly inhibited

Question: And the “inhibitory effect on proliferation of CD8-positive T cells compared to compound T and compound U (UDCA)” value (CD8-positive T cells; 100 μM)?
Answer: significantly superior

Question: What about the “apoptosis of dopaminergic neurons in the substantia nigra region and striatal region” value ([1]; YT salt 167.5 mg/kg twice daily) of the same compound?
Answer: significantly inhibit

Question: And the “MPTP-induced decrease in animal grip strength” value ([1]; YT salt high dose 248 mg/kg intragastrically twice daily, 13 days, P<0.01 vs model)?
Answer: significantly ameliorate

Question: What about the “reduction in TH-positive cells in the substantia nigra region” value ([1]; YT salt high dose 248 mg/kg twice daily) of the same compound?
Answer: significant inhibition

Question: And the “loss of TH-positive neurons (TH immunohistochemical staining in the striatum)” value ([1]; YT salt high dose 248 mg/kg twice daily, P<0.01)?
Answer: significant inhibition

Question: What about the “MPTP-induced reduction in time on the rod (rotarod test)” value ([1]; YT salt high dose 248 mg/kg twice daily, P<0.05 vs model) of the same compound?
Answer: significant amelioration effect

Question: And the “reduction in TH-positive cells in the substantia nigra region” value ([1]; YT salt low dose 167.5 mg/kg twice daily)?
Answer: significant inhibition

Question: What about the median onset time [2, 4] of the same compound?
Answer: 109 days

Question: And the “median time to severe condition occurrence” value [2, 4]?
Answer: 117 days

Question: And the “onset time (earliest onset in group)” value [2, 4]?
Answer: > 90 days of mouse age

Question: What about the “time of first onset vs model group (Log-rank)” value ([2]; 496 mg/kg intragastrically once daily from day 66 of age, P=0.0802) of the same compound?
Answer: no statistical difference

Question: And the “hazard ratio for disease onset” value ([2]; 496 mg/kg intragastrically once daily, Log-rank)?
Answer: 0.5716

Question: What about the “survival period vs model group” value ([2]; 496 mg/kg intragastrically once daily, P<0.01) of the same compound?
Answer: significantly superior

Question: And the “incidence of severe conditions vs model group” value ([2]; 496 mg/kg intragastrically once daily, P<0.05)?
Answer: significantly lower

Question: And the “median onset time longer than in the model group” value ([2]; 496 mg/kg intragastrically once daily, model group 102 days)?
Answer: 7 days

Question: And the death hazard ratio ([2]; 496 mg/kg, Log-rank)?
Answer: 0.3212

Question: What about the “hazard ratio for severe conditions” value ([2]; 496 mg/kg, Log-rank) of the same compound?
Answer: 0.45

Question: And the endpoint survival rate ([2]; 496 mg/kg, endpoint day 130)?
Answer: 53.333%

Question: What about the median survival period ([2]; 496 mg/kg, endpoint day 130) of the same compound?
Answer: the number of dead individuals had not exceeded half by the endpoint of the test

Question: And the “endpoint severe condition rate” value ([2]; 496 mg/kg, endpoint of the test day 130)?
Answer: 66.667%

Question: What about the “hazard ratio for disease onset, times lower than model group” value ([2]; 496 mg/kg, model group 1.749) of the same compound?
Answer: about 3 times

Question: And the “hazard ratio for severe conditions, times lower than model group” value ([2]; 496 mg/kg, model group 2.222)?
Answer: about 5 times

Question: What about the “death hazard ratio, times lower than model group” value ([2]; 496 mg/kg, model group 3.113) of the same compound?
Answer: ~10 times

Question: And the “median time to severe condition occurrence longer than in the model control group” value ([2]; 496 mg/kg, model group 109 days)?
Answer: about 8 days

Question: What about the “effects in improving cell viability compared to compound T, compound B, combination B+N and combination PB+T” value (SH-sy5y cells; Y+T 100 μM+100 μM, YT salt 100 μM, hydrogen peroxide-induced) of the same compound?
Answer: significantly superior effects in improving cell viability

Question: What about the “foot fault rate in grid walking test” value [3] of the same compound?
Answer: significant reduction

Question: What about the “number of foot faults in grid walking test” value [3] of the same compound?
Answer: significant reduction

Question: What does the source list for COc1cc2cc3[n+](cc2cc1OC)CCc1cc2c(cc1-3)OCO2.[Cl-] [compound Y]?
Answer: proliferation of CD4-positive T cells compared to control group (DMSO) (CD4-positive T cells): significantly inhibited; proliferation of CD8-positive T cells compared to control group (DMSO) (CD8-positive T cells): significantly inhibited; effect in improving cell viability compared to compound B monotherapy (SH-sy5y cells; 100 μM each, hydrogen peroxide-induced): superior; effect in improving cell viability compared to the model (SH-sy5y cells; 100 μM, 24 h incubation, then hydrogen peroxide 1 h, P<0.0001 vs model): excellent effect in improving cell viability
